# Entries after “also recorded” stand apart in the source; their conditions may differ. Structures can show the parent of a compound that is named as a salt.
# Experiments:
# healthy adult subjects [1] = assay: Multiple ascending dose study: QTc, safety population; format: in vivo, human; details: Day 1 to Day 23
# Experimental: (§1) A randomized, double-blind, placebo-controlled, sequential, ascending, multiple dose study to assess the safety, tolerability, and pharmacokinetics of the L-arginine salt of Compound 1 administered to healthy adult subjects was conducted. This study was designed to evaluate the safety, tolerability, pharmacokinetics, and pharmacodynamics of the L-arginine salt of Compound 1.
# (§2) Cohort 1 was dosed with 0.7 mg (by administering two 0.35 mg formulations) for 21 days. Cohort 2 was dosed with 1.35 mg (by administering both a 0.35 mg formulation and a 1 mg formulation) for 21 days. Cohort 3 was dosed with 2.0 mg for 21 days. Cohort 4 was dosed with 0.35 mg for 7 days and then with 2.0 mg for 14 days. Cohort 5 was dosed with 0.5 for 7 days and then with 3.0 mg (by administering both a 1 mg formulation and a 2 mg formulation) for 14 days.
# (§3) The following safety assessments were conducted: physical examinations with ophthalmoscopy, clinical laboratory tests (serum chemistry, coagulation, and urinalysis), vital signs, continuous telemetry (12 lead ECG), safety ECGs, pulmonary function testing (PFT), serum protein electrophoresis (SPEP) and serum immunoelectrophoresis (IEP), and adverse event reporting.
# healthy adult subjects [2] = assay: Multiple ascending dose study: systolic BP, safety population; format: in vivo, human; details: Day 1 to Day 28
# Experimental: as §1, §2, §3
# healthy adult subjects [3] = assay: Multiple ascending dose study: safety assessments and adverse events
# Experimental: as §3
# lymphocytes = assay: Multiple ascending dose study: lymphocyte counts, safety population; format: in vivo, human; details: day 21; 0.35 mg for 7 days then 2.0 mg for 14 days
# Experimental: as §1, §2
# [4] = 0.35 mg for 7 days then 2.0 mg for 14 days
# [5] = 0.5 mg for 7 days then 3.0 mg for 14 days
smiles,measurement,setting,value
O=C(O)C[C@H]1CCc2c1[nH]c1ccc(OCc3ccc(C4CCCC4)c(C(F)(F)F)c3)cc21 [L-arginine salt of Compound 1],"Maximum Value for Post-dose QTc, Change from Baseline, Mean",healthy adult subjects [1]; [4],−0.10 MS
same,"Maximum Value for Post-dose QTc, Change from Baseline, Median",healthy adult subjects [1]; [4],0.50 MS
same,"Maximum Value for Post-dose QTc, Change from Baseline, Min, Max",healthy adult subjects [1]; [4],−19.00 to 17.00 MS
same,"Maximum Value for Post-dose QTc, On Treatment Mean",healthy adult subjects [1]; [4],411.10 MS
same,"Maximum Value for Post-dose QTc, Change from Baseline, Mean",healthy adult subjects [1]; [5],5.60 MS
same,"Maximum Value for Post-dose QTc, Change from Baseline, Median",healthy adult subjects [1]; [5],5.00 MS
same,"Maximum Value for Post-dose QTc, Change from Baseline, Min, Max",healthy adult subjects [1]; [5],−5.00 to 15.00 MS
same,"Maximum Value for Post-dose QTc, On Treatment Mean",healthy adult subjects [1]; [5],425.10 MS
same,"Maximum Value for Post-dose QTc, Change from Baseline, Mean",healthy adult subjects [1]; 0.7 mg for 21 days,3.60 MS
same,"Maximum Value for Post-dose QTc, Change from Baseline, Median",healthy adult subjects [1]; 0.7 mg for 21 days,3.50 MS
same,"Maximum Value for Post-dose QTc, Change from Baseline, Min, Max",healthy adult subjects [1]; 0.7 mg for 21 days,−8.00 to 16.00 MS
same,"Maximum Value for Post-dose QTc, On Treatment Mean",healthy adult subjects [1]; 0.7 mg for 21 days,418.40 MS
same,"Maximum Value for Post-dose QTc, Change from Baseline, Mean",healthy adult subjects [1]; 1.35 mg for 21 days,8.20 MS
same,"Maximum Value for Post-dose QTc, Change from Baseline, Median",healthy adult subjects [1]; 1.35 mg for 21 days,6.00 MS
same,"Maximum Value for Post-dose QTc, Change from Baseline, Min, Max",healthy adult subjects [1]; 1.35 mg for 21 days,−5.00 to 25.00 MS
same,"Maximum Value for Post-dose QTc, On Treatment Mean",healthy adult subjects [1]; 1.35 mg for 21 days,423.60 MS
same,"Maximum Value for Post-dose QTc, Change from Baseline, Mean",healthy adult subjects [1]; 2.0 mg for 21 days,4.00 MS
same,"Maximum Value for Post-dose QTc, Change from Baseline, Median",healthy adult subjects [1]; 2.0 mg for 21 days,4.50 MS
same,"Maximum Value for Post-dose QTc, Change from Baseline, Min, Max",healthy adult subjects [1]; 2.0 mg for 21 days,−8.00 to 13.00 MS
same,"Maximum Value for Post-dose QTc, On Treatment Mean",healthy adult subjects [1]; 2.0 mg for 21 days,421.20 MS
same,"Minimum Value for Post-dose Systolic BP, Change from Baseline, Mean",healthy adult subjects [2]; [4],−13.00 mmHg
same,"Minimum Value for Post-dose Systolic BP, Change from Baseline, Median",healthy adult subjects [2]; [4],−13.00 mmHg
same,"Minimum Value for Post-dose Systolic BP, Change from Baseline, Min, Max",healthy adult subjects [2]; [4],−28.00 to 0.00 mmHg
same,"Minimum Value for Post-dose Systolic BP, On Treatment Mean",healthy adult subjects [2]; [4],94.30 mmHg
same,"Minimum Value for Post-dose Systolic BP, Change from Baseline, Mean",healthy adult subjects [2]; [5],−7.80 mmHg
same,"Minimum Value for Post-dose Systolic BP, Change from Baseline, Median",healthy adult subjects [2]; [5],−5.00 mmHg
same,"Minimum Value for Post-dose Systolic BP, Change from Baseline, Min, Max",healthy adult subjects [2]; [5],−18.00 to 5.00 mmHg
same,"Minimum Value for Post-dose Systolic BP, On Treatment Mean",healthy adult subjects [2]; [5],93.20 mmHg
same,"Minimum Value for Post-dose Systolic BP, Change from Baseline, Mean",healthy adult subjects [2]; 0.7 mg for 21 days,−9.70 mmHg
same,"Minimum Value for Post-dose Systolic BP, Change from Baseline, Median",healthy adult subjects [2]; 0.7 mg for 21 days,−9.50 mmHg
same,"Minimum Value for Post-dose Systolic BP, Change from Baseline, Min, Max",healthy adult subjects [2]; 0.7 mg for 21 days,−16.00 to −1.00 mmHg
same,"Minimum Value for Post-dose Systolic BP, On Treatment Mean",healthy adult subjects [2]; 0.7 mg for 21 days,96.10 mmHg
same,"Minimum Value for Post-dose Systolic BP, Change from Baseline, Mean",healthy adult subjects [2]; 1.35 mg for 21 days,−8.90 mmHg
same,"Minimum Value for Post-dose Systolic BP, Change from Baseline, Median",healthy adult subjects [2]; 1.35 mg for 21 days,−8.00 mmHg
same,"Minimum Value for Post-dose Systolic BP, Change from Baseline, Min, Max",healthy adult subjects [2]; 1.35 mg for 21 days,−22.00 to 3.00 mmHg
same,"Minimum Value for Post-dose Systolic BP, On Treatment Mean",healthy adult subjects [2]; 1.35 mg for 21 days,100.10 mmHg
same,"Minimum Value for Post-dose Systolic BP, Change from Baseline, Mean",healthy adult subjects [2]; 2.0 mg for 21 days,−9.80 mmHg
same,"Minimum Value for Post-dose Systolic BP, Change from Baseline, Median",healthy adult subjects [2]; 2.0 mg for 21 days,−9.00 mmHg
same,"Minimum Value for Post-dose Systolic BP, Change from Baseline, Min, Max",healthy adult subjects [2]; 2.0 mg for 21 days,−18.00 to −4.00 mmHg
same,"Minimum Value for Post-dose Systolic BP, On Treatment Mean",healthy adult subjects [2]; 2.0 mg for 21 days,90.80 mmHg
same,"Subjects with mildly abnormal reproducible (NCS) pulmonary function test findings (FEV1 below 80%, FVC) post-dose",healthy adult subjects [3]; 1.35 mg dose,One
same,Subjects with mildly abnormal non-clinically significant post-treatment liver function tests (elevated ALT & AST <2× ULN),healthy adult subjects [3]; 2mg group,1 subject
same,Subjects with new 1st degree atrioventricular block,healthy adult subjects [3]; 2mg group,1 subject
same,Subjects with new 1st degree atrioventricular block,"healthy adult subjects [3]; 0.5, 3 mg group",1 subject
same,Subjects with mildly abnormal non-clinically significant post-treatment liver function tests (elevated ALT & AST <2× ULN),healthy adult subjects [3]; 0.5 escalating to 3 mg group,1 subject
same,Discontinuation due to an adverse event,healthy adult subjects [3]; multiple dose,No subjects were discontinued due to an adverse event
same,Most common adverse events,healthy adult subjects [3]; multiple dose,"contact dermatitis and leukopenia, followed by constipation, diarrhea, nausea, and abdominal pain"
same,Ophthalmoscopy findings,healthy adult subjects [3]; multiple dose,No clinically significant change from baseline
same,Severity of adverse events,healthy adult subjects [3]; multiple dose,majority of adverse events were mild
same,"Vital signs, ECGs, PFTs, ophthalmoscopy, clinical laboratory tests",healthy adult subjects [3]; multiple dose,no other clinically significant safety issues
same,SAEs or deaths,"healthy adult subjects [3]; multiple dose, all dose levels",No SAEs or deaths
same,Second degree heart block,"healthy adult subjects [3]; multiple dose, all dose levels",No second degree heart block
same,Tolerability,"healthy adult subjects [3]; multiple dose, all dose levels (0.7 to 3.0 mg, 21 days)",tolerated at all dose levels; also recorded: well tolerated at all doses tested
same,"Lymphocytes, On Treatment Mean",lymphocytes,0.62 10^3/μl
same,"Lymphocytes, Percent Change from Baseline, Mean",lymphocytes,−67.34%
same,"Lymphocytes, Percent Change from Baseline, Median",lymphocytes,−67.54%
same,"Lymphocytes, Percent Change from Baseline, Min, Max",lymphocytes,−77.27 to −57.14%

# Reference: US12377071B2, “Methods of treating conditions related to the S1P1 receptor” (Arena Pharmaceuticals, Inc., priority 2015, dated 2025)
